Measured values taken from paper PMC4310094, “FXR antagonism of NSAIDs contributes to drug-induced liver injury identified by systems pharmacology approach” (Scientific Reports, 2015).
pIC50: −log10 of the molar value.

Columns and labels:
STAT3 = test: Western blot of STAT3 phosphorylation in HepG2 cells; format: cell-based; details: Figure 6A
Experimental: (§1) In subsequent experiments, we further investigated whether NSAIDs could induce STAT3 activation and suppress the expression of caspase9. […] The phosphorylated STAT3 was determined by western blot analysis. […] For STAT3 phosphorylation and caspase9 expression analysis, HepG2 cells were seeded in 6-well plates and then treated with varied compounds in serum-free DMEM media. After 24 h incubation, cells were washed twice with ice-cold phosphate buffered saline (PBS) and lysed in RIPA buffer including 5 mM NaF, 1 mM PMSF, 2 mM NaVO4 and protease inhibitor cocktail. Lysates were then centrifuged at 10,000 rpm for 10 min at 4°and the protein concentrations were determined by BCA assay. Whole cell extracts was resolved on 10% SDS-PAGE and transferred to polyvinylidene fluoride (PVDF) membrane. The membrane was blotted with antibodies against p-STAT3, total-STAT3, caspase9 and GAPDH, and then examined by ECL detection system according to the manufacturer's instructions (Amersham Pharmacia Biotech).

caspase9 = test: Western blot of caspase9 in HepG2 cells; format: cell-based; details: Figure 6B
Experimental: as §1

[1] = target: T1, Farnesoid X Receptor (FXR) (Homo sapiens, UniProt Q96RI1); test: Yeast two-hybrid assay, FXR antagonist testing (compounds plus 10 μM CDCA); format: cell-based; details: for pIC50: hFXR-LBD/SRC1, determined if inhibition at 10 μM > 50%
T1 construct: Human FXRα-LBD (amino acids 200–473); expressed in transfected cells; host or cells: yeast strain AH109
T1 sequence (Q96RI1 200-472 isoform Q96RI1-2): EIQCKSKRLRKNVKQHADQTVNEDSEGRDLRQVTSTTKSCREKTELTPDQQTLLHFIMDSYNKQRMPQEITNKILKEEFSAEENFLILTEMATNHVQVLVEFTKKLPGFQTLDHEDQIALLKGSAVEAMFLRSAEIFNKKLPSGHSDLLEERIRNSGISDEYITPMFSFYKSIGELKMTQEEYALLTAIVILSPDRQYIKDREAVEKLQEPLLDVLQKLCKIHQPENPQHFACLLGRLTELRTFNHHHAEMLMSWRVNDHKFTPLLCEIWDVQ
Text: (§2) Yeast two-hybrid system is a powerful tool for identifying potential agonist or antagonist of nuclear receptor based on the protein-protein interaction between nuclear receptor and its transcriptional co-activator[34]. Based on the predicted results through our systems pharmacology approach, the yeast two-hybrid system was set up according to a previous study[35] to test whether NSAIDs can modulate the activation of FXR. A series of NSAIDs with diverse chemical structures were collected and experimentally evaluated for their effects on the interaction between FXR and its co-activator SRC1. […] The previous studies reported an immune-mediated mechanism that is related to liver toxicity induced by oxicams and coxibs.
(§3) The yeast expression plasmids pGADT7 and pGBKT7 were from Clontech (Palo Alto, CA). Human FXRα-LBD (amino acids 200–473) was subcloned into vector pGBKT-7 using NdeI and BamHI restrict enzyme sites. The primers used for PCR amplification were listed as follows: FXRα-LBD (sense) 5′-[…]-3′, (anti-sense) 5′-[…]-3′. The combination plasmid pGADT7-SRC1 was prepared as described previously. The luciferase reporter plasmid pGL3-FXRE-Luc was generously donated by Dr. Majlis Hermansson (AstraZeneca R&D Mölndal, Sweden).
(§4) A yeast two-hybrid system for FXRα was constructed by yeast co-transformation with pGBKT7-FXR LBD and pGADT7-SRC1 according to manufacturer's protocols. […] 24 h later, we harvested the yeast cells and analyzed α-galactosidase activity using p-nitrophenyl α-D-galactopyranoside as the substrate.

[2] = target: T1, Farnesoid X Receptor (FXR); test: Yeast two-hybrid assay, hFXR agonist testing (FXR-LBD/SRC1 interaction, α-galactosidase); format: cell-based; details: DMSO = 1
Text: as §2, §3, §4

SHP = test: qRT-PCR of FXR target gene SHP in HepG2 cells
Experimental: The mRNA levels of the FXR target genes were quantified by qRT-PCR.
The data were carried out in at least three independent experiments.
HepG2 cells were cultured at 37°C in DMEM media supplemented with 10% FBS. And then cells were seeded into 6-well plates and grew to 80–90% confluence. After incubation with the test compounds for 24 h, cells were harvested and total RNA was isolated using Trizol reagent. The first single-strand cDNA was synthesized using reverse transcriptase kit. The qRT-PCR was performed using Bio-Rad CFX96^TM real time PCR system according to the manufacturer's instruction with specific primers for the FXR target gene SHP (forward 5′-[sequence]-3′, reverse 5′-[sequence]-3′), CYP7A1 (forward 5′- [sequence]-3′, reverse 5′- [sequence]-3′) for detection of the transcripts. Transcription levels were normalized to GAPDH mRNA levels (forward 5′- [sequence]-3′, reverse 5′- [sequence]-3′). The relative RNA quantities were calculated using the comparative threshold cycles (Ct) method. The Ct for the SHP, CYP7A1 and GAPDH signals were determined in triplicate experiments.

SMILES	inhibition at 10 µM [1]	pIC50 ([1]; yeast two hybrid)	FXR activation (10 μM) [2]	further results
C[C@H](CCC(=O)O)[C@H]1CC[C@H]2[C@@H]3[C@H](O)C[C@@H]4C[C@H](O)CC[C@]4(C)[C@H]3CC[C@]12C [CDCA, chenodeoxycholic acid]	–	–	–	effect on indomethacin-induced STAT3 activation (STAT3; CDCA pretreatment): suppresses indomethacin-induced STAT3 activation; caspase9 levels on co-treatment with indomethacin (caspase9; co-treated with indomethacin and CDCA): substantially attenuated back to the normal level
O=C(O)c1cc(-c2ccc(F)cc2F)ccc1O [Diflunisal]	93.3%	5.07	1.31	–
COc1ccc2c(c1)c(CC(=O)O)c(C)n2C(=O)c1ccc(Cl)cc1 [Indomethacin]	–	–	–	biological activity on genes SHP and CYP7A1 compared with ibuprofen (SHP): higher biological activity than ibuprofen; STAT3 phosphorylation level (STAT3; western blot): significantly increases the STAT3 phosphorylation level; caspase9 expression (caspase9; western blot): significantly stimulates caspase9 expression in a dose-dependent manner
CCCCC1C(=O)N(c2ccccc2)N(c2ccccc2)C1=O [Phenylbutazone]	91.9%	6.15	0.99	FXR antagonist potency compared with guggulsterones (GS) ([1]; yeast two hybrid): more potent FXR antagonist than guggulsterones
CN1C(C(=O)Nc2ccccn2)=C(O)c2ccccc2S1(=O)=O [Piroxicam]	30.7%	< 4.60	1.13	–
CS(=O)(=O)c1ccc(C2=C(c3ccccc3)C(=O)OC2)cc1 [Rofecoxib]	39.9%	< 4.60	1.18	–
